Laboratory results: patent publication US20100311698A1, “AQUEOUS BASED PHARMACEUTICAL FORMULATIONS OF WATER-SOLUABLE PRODRUGS OF PROPOFOL” (EISAI C[…] NORTH AMERICA, priority 2006, published 2010)
Read-outs that look alike come from different tables or passages of the source.

How the values were obtained:
[1] = Water solubility; assay type: physicochemical; settings: degradation products of the prodrug
[2] = anesthetic induction doses; cited from earlier work
[3] = background statement; cited from earlier work
[4] = commercially available formulations; cited from earlier work
[5] = DIP (propofol) formation by hydrolysis at accelerated stability conditions as a function of pH; assay type: physicochemical; settings: for DIP formation: 40° C./75% RH
From the text: This example illustrates that the degradation of O-phosphonooxymethyl propofol is pH dependent. In particular, higher pH conditions generally result in lower rates of hydrolysis (degradation) of the prodrug, while lower pH conditions increase the rate of hydrolysis. […]

Oc1ccc(O)cc1 [hydroquinone]
Water solubility [1]: poorly water-soluble

CC(C)c1cccc(C(C)C)c1O [propofol]
Respiratory consequences, including a reduction in tidal volume and apnea [2]: up to 83 % of patients
Water solubility [1]: poorly water-soluble
Water solubility [3]: poorly water soluble
Oral bioavailability [4]: very low

quinone
Water solubility [1]: poorly water-soluble

CC(C)c1cccc(C(C)C)c1OCOP(=O)(O)O [O-phosphonooxymethyl propofol, O-phosphonooxymethyl-propofol]
DIP formation ([5]; pH 6.9, 1 month): 1.22 % w/v
DIP formation ([5]; pH 6.9, 3 months): 1.90 % w/v
DIP formation ([5]; pH 6.9, 6 months): 3.47 % w/v
DIP formation ([5]; pH 7.4, 1 month): 0.83 % w/v
DIP formation ([5]; pH 7.4, 3 months): 0.67 % w/v
DIP formation ([5]; pH 7.4, 6 months): 2.14 % w/v
DIP formation ([5]; pH 8.0, 1 month): 0.32 % w/v
DIP formation ([5]; pH 8.0, 3 months): 0.76 % w/v
DIP formation ([5]; pH 8.0, 6 months): 0.72 % w/v
DIP formation ([5]; pH 8.5, 1 month): 0.15 % w/v
DIP formation ([5]; pH 8.5, 3 months): 0.41 % w/v
DIP formation ([5]; pH 8.5, 6 months): 0.73 % w/v
DIP formation ([5]; pH 9.1, 3 months): 0.12 % w/v
DIP formation ([5]; pH 9.1, 6 months): 0.22 % w/v
DIP formation ([5]; pH 9.9, 6 months): 0.09 % w/v
Amount of hydrolysis ([5]; pH of about 9-9.5, 40° C., 75% RH): least amount of hydrolysis
